Molecules are shown by their SMILES. “And” between values parts separate entries of the source, which are not always exact repeats. Equal entries are not always repeated. Results filed as inconclusive are left out.

Data on 13 compounds can be found in PubChem BioAssay AID212 (DTP/NCI, 2004).

The experiment deals with BDF1 mice, colon carcinoma 38 sc, T/C %. Briefly: NCI In Vivo Anticancer Drug Screen. Data for tumor model Colon Carcinoma 38 (subcutaneous) in B6D2F1 (BDF1) mice. Particulars: endpoint: median tumor weight (est.), higher = larger tumour. The procedure, abridged: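 Compound antitumor activity was assessed in mice carrying transplantable tumors. Survival or tumor size was recorded, and each value is the treated-group measurement divided by that of the vehicle-treated control group.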

The mark [1] stands for this setting: dose: 12.5 mg/kg/injection, schedule: Q07DX002 (ip), vehicle: saline.
Where [2] appears, read: dose: 25.0 mg/kg/injection, schedule: Q07DX002 (ip), vehicle: saline.
[3] abbreviates: dose: 50.0 mg/kg/injection, schedule: Q07DX002 (ip), vehicle: saline with Tween-80.
The mark [4] stands for this setting: dose: 50.0 mg/kg/injection, schedule: Q07DX002 (ip), vehicle: saline.
Setting [5] is: dose: 100.0 mg/kg/injection, schedule: Q07DX002 (ip), vehicle: saline with Tween-80.
The mark [6] stands for this setting: dose: 100.0 mg/kg/injection, schedule: Q07DX002 (ip), vehicle: saline.
Setting [7] is: dose: 200.0 mg/kg/injection, schedule: Q07DX002 (ip), vehicle: saline with Tween-80.
[8] abbreviates: dose: 200.0 mg/kg/injection, schedule: Q07DX002 (ip), vehicle: saline.
Setting [9] is: dose: 400.0 mg/kg/injection, schedule: Q07DX002 (ip), vehicle: saline.
[10] abbreviates: dose: 12.5 mg/kg/injection, schedule: Q07DX002 (ip), vehicle: Klucel (hydroxypropylcellulose) (HPC).
The mark [11] stands for this setting: dose: 25.0 mg/kg/injection, schedule: Q07DX002 (ip), vehicle: Klucel (hydroxypropylcellulose) (HPC).
[12] abbreviates: dose: 50.0 mg/kg/injection, schedule: Q07DX002 (ip), vehicle: Klucel (hydroxypropylcellulose) (HPC).
Setting [13] is: dose: 200.0 mg/kg/injection, schedule: Q07DX002 (ip), vehicle: Klucel (hydroxypropylcellulose) (HPC).
The mark [14] stands for this setting: dose: 6.25 mg/kg/injection, schedule: Q07DX002 (ip), vehicle: saline with Tween-80.
Setting [15] is: dose: 12.5 mg/kg/injection, schedule: Q07DX002 (ip), vehicle: saline with Tween-80.
[16] abbreviates: dose: 25.0 mg/kg/injection, schedule: Q07DX002 (ip), vehicle: saline with Tween-80.

`CN(CO)c1nc(N(C)CO)nc(N(C)CO)n1`: the T/C under setting [1] is 95 % of control; the T/C (dose: 12.5 mg/kg/injection, schedule: Q07DX003 (ip), vehicle: saline) was 208 % of control; the T/C under setting [2] was 87 % of control; the T/C (dose: 25.0 mg/kg/injection, schedule: Q07DX003 (ip), vehicle: saline) is 165 % of control; the T/C under setting [3] was 117 % of control; the T/C under setting [4] was 66 % of control. The T/C is, setting by setting: (dose: 50.0 mg/kg/injection, schedule: Q07DX003 (ip), vehicle: saline) 81 % of control; under setting [5], 105 % of control; under setting [6], 46 % of control; (dose: 100.0 mg/kg/injection, schedule: Q07DX003 (ip), vehicle: saline) 46 % of control; under setting [7], 55 % of control; under setting [8], 21 % of control. Further, the T/C (dose: 200.0 mg/kg/injection, schedule: Q07DX003 (ip), vehicle: saline) was 6 % of control and the T/C under setting [9] is 4 % of control.
With `O=C1C=CC(=O)N1c1ccc(Cl)cc1`, the T/C is 32 % of control (dose: 1.25 mg/kg/injection, schedule: Q07DX002 (ip), vehicle: Klucel (hydroxypropylcellulose) (HPC)); 61 % of control and 73 % of control (dose: 10.0 mg/kg/injection, schedule: Q07DX002 (ip), vehicle: Klucel (hydroxypropylcellulose) (HPC)); 60 % of control and 67 % of control (dose: 20.0 mg/kg/injection, schedule: Q07DX002 (ip), vehicle: Klucel (hydroxypropylcellulose) (HPC)).
As for `COC1OC(CO)C(O)C(NC(=O)N(C)N=O)C1O` (stereo unspecified), the T/C is 113 % of control under setting [1]; 95 % of control and 102 % of control under setting [4]; 2 % of control and 9 % of control (dose: 800.0 mg/kg/injection, schedule: Q07DX002 (ip), vehicle: saline).
With `C[C@]12CC[C@@H]3c4ccc(O)cc4CC[C@H]3[C@@H]1CC[C@@H]2O`, the T/C runs as follows: (dose: 6.25 mg/kg/injection, schedule: Q07DX002 (ip), vehicle: Klucel (hydroxypropylcellulose) (HPC)) 83 % of control; under setting [10], 108 % of control and 249 % of control; under setting [11], 282 % of control and 99 % of control; under setting [12], 260 % of control; (dose: 100.0 mg/kg/injection, schedule: Q07DX002 (ip), vehicle: Klucel (hydroxypropylcellulose) (HPC)) 282 % of control; under setting [13], 117 % of control and 271 % of control.
`ClCCCN1CCN(CCCCl)CC1`: the T/C (dose: 12.5 mg/kg/injection, schedule: Q07DX002 (ip), vehicle: distilled water + alcohol) is 94 % of control; the T/C (dose: 25.0 mg/kg/injection, schedule: Q07DX002 (ip), vehicle: distilled water + alcohol) was 154 % of control; the T/C (dose: 50.0 mg/kg/injection, schedule: Q07DX002 (ip), vehicle: distilled water + alcohol) was 153 % of control and 207 % of control; the T/C (dose: 100.0 mg/kg/injection, schedule: Q07DX002 (ip), vehicle: distilled water + alcohol) is 39 % of control and 50 % of control; the T/C (dose: 200.0 mg/kg/injection, schedule: Q07DX002 (ip), vehicle: distilled water + alcohol) was 63 % of control.
For `C[CH2][Sn]1([CH2]C)[O]OC(c2ccccc2)[O]1` (stereo unspecified), the T/C runs as follows: (dose: 1.56 mg/kg/injection, schedule: Q07DX002 (ip), vehicle: saline with Tween-80) 121 % of control; under setting [14], 237 % of control; under setting [15], 195 % of control; under setting [16], 84 % of control.
Consider `C[C@@H]1C[C@@H]([C@H](O)CC2CC(=O)NC(=O)C2)C(=O)[C@@H](C)C1`, for which the T/C is, setting by setting: under setting [3], 162 % of control; under setting [5], 90 % of control; under setting [7], 60 % of control.
Regarding `CCC1OCC(C(Cl)CCl)O1` (stereo unspecified), the T/C under setting [10] is 101 % of control; the T/C (dose: 12.5 mg/kg/injection, schedule: Q07DX003 (ip), vehicle: Klucel (hydroxypropylcellulose) (HPC)) was 82 % of control; the T/C under setting [11] is 95 % of control and 96 % of control; the T/C (dose: 25.0 mg/kg/injection, schedule: Q07DX003 (ip), vehicle: Klucel (hydroxypropylcellulose) (HPC)) is 96 % of control; the T/C (dose: 50.0 mg/kg/injection, schedule: Q07DX003 (ip), vehicle: Klucel (hydroxypropylcellulose) (HPC)) is 92 % of control; the T/C (dose: 100.0 mg/kg/injection, schedule: Q07DX003 (ip), vehicle: Klucel (hydroxypropylcellulose) (HPC)) is 69 % of control. The T/C is 203 % of control under setting [13]; 67 % of control (dose: 200.0 mg/kg/injection, schedule: Q07DX003 (ip), vehicle: Klucel (hydroxypropylcellulose) (HPC)); 39 % of control (dose: 400.0 mg/kg/injection, schedule: Q07DX003 (ip), vehicle: Klucel (hydroxypropylcellulose) (HPC)).
`CCCCN(CCCC)C(Cl)=Nc1ccccc1`: the T/C is 111 % of control and 118 % of control under setting [10]; 93 % of control and 94 % of control under setting [11]; 68 % of control and 89 % of control under setting [12].
Take `NC(=S)c1cn(C2OC(CO)C(O)C2O)c2ncnc(N)c12` (stereo unspecified): the T/C reads like this: (dose: 1.25 mg/kg/injection, schedule: Q07DX002 (ip), vehicle: suspension in saline) 108 % of control; (dose: 2.5 mg/kg/injection, schedule: Q07DX002 (ip), vehicle: suspension in saline) 81 % of control; (dose: 5.0 mg/kg/injection, schedule: Q07DX002 (ip), vehicle: suspension in saline) 104 % of control; (dose: 10.0 mg/kg/injection, schedule: Q07DX002 (ip), vehicle: suspension in saline) 82 % of control.
For the compound `Nc1nnc[se]1`, the T/C was 79 % of control and 100 % of control under setting [14]; 66 % of control and 73 % of control under setting [15]; 86 % of control and 89 % of control under setting [16]; 50 % of control under setting [7].
For `Cn1cnc([N+](=O)[O-])c1SCC(=O)O`, the T/C was 65 % of control under setting [1]; 62 % of control under setting [2]; 67 % of control under setting [4]; 99 % of control under setting [6]; 111 % of control (dose: 112.5 mg/kg/injection, schedule: Q07DX002 (ip), vehicle: saline); 94 % of control under setting [8]. The T/C is 85 % of control (dose: 225.0 mg/kg/injection, schedule: Q07DX002 (ip), vehicle: saline); 100 % of control under setting [9]; 163 % of control (dose: 450.0 mg/kg/injection, schedule: Q07DX002 (ip), vehicle: saline); 59 % of control (dose: 900.0 mg/kg/injection, schedule: Q07DX002 (ip), vehicle: saline); 101 % of control (dose: 1800.0 mg/kg/injection, schedule: Q07DX002 (ip), vehicle: saline).
`CCCCCC[Se][Se]CCCCCC`: the T/C is, setting by setting: (dose: 3.12 mg/kg/injection, schedule: Q07DX002 (ip), vehicle: Klucel (hydroxypropylcellulose) (HPC)) 100 % of control; under setting [11], 95 % of control.
